PubChem BioAssay AID1963421 (Molecular Pharmacology Branch, DTP, NCI, 2024)

Tested on: 519858-162-T-J1-PDC complex spheroid growth, % test/control
Assay: Anticancer human tumor 519858-162-T-J1-PDC patient-derived colon adenocarcinoma cell line growth inhibition [Asc]
Details: for IC50: curve of first compound; for viability, T/C: stronger effect = lower value
Procedure: Multicellular complex tumor spheroid response to apoptosis pathway targeting inhibitors Alrizomadlin, Pelcitoclax, and Dasminapant in combination with a variety of drugs and investigational agents in selected tumor cell lines
The MDM2 inhibitor alrizomadlin, the Bcl-2/Bcl-xL inhibitor pelcitoclax, and the IAPs inhibitor dasminapant were evaluated both individually and in combination with standard of care and investigational anticancer small molecules within a complex spheroid model of solid tumors. . Complex spheroids include a stromal component modeled by human endothelial cells (HUVEC) and fibroblasts modeled by human mesenchymal stem cells (MSCs). The concentration ranges selected for each drug and investigational agent were based upon clinically achievable concentrations if the clinical Cmax of the agent was known.
Compounds. The drugs and investigational agents: alrizomadlin (APG-115; NSC831270), pelcitoclax (APG-1252; NSC835773), dasminapant (APG-1387;NSC834197), TAK-243 (NSC785004), copanlisib (NSC809693), olaparib (NSC753686), talazoparib (NSC767125), cobimetinib (NSC 768068), eltanexor (KPT-8602, NSC 794443), abemaciclib (NSC 768073), sotorasib (NSC818433), adagrasib (NSC 831453), MRTX-1133 (NSC 836407), Iadademestat (ORY1001, NSC 806812), and RMC-4630 (NSC839698), were obtained from the NCI Developmental Therapeutics Program Chemical Repository. The FDA-approved anticancer drug set is available from the Developmental Therapeutics Program at https://dtp.cancer.gov/organization/dscb/obtaining/available plates.htm. […] The stock solutions were prepared in dimethyl sulfoxide (DMSO, Sigma-Aldrich, St. Louis, MO, cat. D2650) at 800-fold the tested concentration and stored at -70 degrees C prior to their use. All drugs and investigational agents were tested over a range starting from a high concentration at or near the clinical Cmax and decreasing in half-log increments. If the clinical Cmax for an agent had not been determined, the highest concentration tested was 10 microM.
The patient-derived cancer (PDC) cell lines include five colon adenocarcinomas: 186277-243-T-J2-PDC, 616215-338-R-J1-PDC, 439559-082-T-J2-PDC, 463943-066-T-J2-PDC, and 519858-162-T-J1-PDC; three pancreatic carcinomas: 323965-272-R-J2-PDC, 521955-158-R6-J3-PDC, and 521955-158-R2-J5-PDC; two uterine sarcomas: 327498-152-R-J2-PDC and 993429-296-R-J1-PDC; two rhabdomyosarcomas: 755483-174-R-J1-PDC and 772245-204-R-J1-PDC; two soft tissue sarcomas: 126254-015-R-J1-PDC and 494315-158-R-J1-PDC; two malignant fibrous histiocytomas: 317291-083-R-J1-PDC and 596521-263-R-J1-PDC; two breast carcinomas: 171881-019-R-J1-PDC and 885512-296-R-J2-PDC; and one ovarian carcinoma: 6556581-035-R-J-PDC were obtained from the NCI PDMR, (https://pdmr.cancer.gov). The established cell lines HSSY-2 synovial sarcoma (RRID:CVCL 8719), SYO-1 synovial sarcoma (RRID:CVCL_7146), MPNST malignant peripheral neural sheath tumor were obtained from the Sloan Kettering Institute. The following established cell lines were purchased from the American Type Culture Collection (ATCC, Manassas, VA), Sor the received from the NCI repository:, PANC-1 pancreatic carcinoma (CRL-1469, RRID:CVCL_0480), OVCAR-5 ovarian carcinoma (RRID:CVCL_1628), OVCAR-8 ovarian carcinoma (RRID:CVCL_1629), , MCF-7 breast carcinoma (CRL-12584, RRID:CVCL_0031), MDA-MB-231 breast carcinoma (CRL-12532, RRID:CVCL_0062), NCI-H1876 small cell lung carcinoma (CRL-5902, RRID:CVCL_1503), NCI-H510A small cell lung carcinoma (HTB-184, RRID:CVCL_1565), NCI-H1417 (CRL-5869, RRID:CVCL_1469), and NCI-H196 small cell lung carcinoma (CRL-5823, RRID:CVCL_1509). Dr. Peter Houghton (Greehey Children's Cancer Research Institute, University of Texas Health Science Center, San Antonio, TX) provided Rh-18 rhabdomyosarcoma (RRID:CVCL_1659). Pooled donor human umbilical vein endothelial cells (HUVEC, Lonza, cat. CC-2519) and human mesenchymal stem cells (hMSC, Lonza, cat. PT-2501) were purchased from Lonza (Walkersville, MD).
Cell Culture. […]

[1] = second compound 0.00949 µM, first compound 0.00316 µM
[2] = second compound 0.00949 µM, first compound 0.01 µM
[3] = second compound 0.00949 µM, first compound 0.0316 µM
[4] = second compound 0.00949 µM, first compound 0.1 µM
[5] = second compound 0.00949 µM, first compound 0.316 µM
[6] = second compound 0.00949 µM, first compound 1 µM
[7] = second compound 0.03 µM, first compound 0.00316 µM
[8] = second compound 0.03 µM, first compound 0.01 µM
[9] = second compound 0.03 µM, first compound 0.0316 µM
[10] = second compound 0.03 µM, first compound 0.1 µM
[11] = second compound 0.03 µM, first compound 0.316 µM
[12] = second compound 0.03 µM, first compound 1 µM
[13] = second compound 0.0949 µM, first compound 0.00316 µM
[14] = second compound 0.0949 µM, first compound 0.01 µM
[15] = second compound 0.0949 µM, first compound 0.0316 µM
[16] = second compound 0.0949 µM, first compound 0.1 µM
[17] = second compound 0.0949 µM, first compound 0.316 µM
[18] = second compound 0.0949 µM, first compound 1 µM
[19] = second compound 0.3 µM, first compound 0.00316 µM
[20] = second compound 0.3 µM, first compound 0.01 µM
[21] = second compound 0.3 µM, first compound 0.0316 µM
[22] = second compound 0.3 µM, first compound 0.1 µM
[23] = second compound 0.3 µM, first compound 0.316 µM
[24] = second compound 0.3 µM, first compound 1 µM
[25] = second compound 0.949 µM, first compound 0.00316 µM
[26] = second compound 0.949 µM, first compound 0.01 µM
[27] = second compound 0.949 µM, first compound 0.0316 µM
[28] = second compound 0.949 µM, first compound 0.1 µM
[29] = second compound 0.949 µM, first compound 0.316 µM
[30] = second compound 0.949 µM, first compound 1 µM
[31] = second compound 3 µM, first compound 0.00316 µM
[32] = second compound 3 µM, first compound 0.01 µM
[33] = second compound 3 µM, first compound 0.0316 µM
[34] = second compound 3 µM, first compound 0.1 µM
[35] = second compound 3 µM, first compound 0.316 µM
[36] = second compound 3 µM, first compound 1 µM
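Further: seven day drug exposure begun three days after spheroid seeding.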
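Wherever viability, T/C is given: 100% = DMSO vehicle wells and lower values mean less viable spheroid.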

CCN1CCN(Cc2ccc(Nc3ncc(F)c(-c4cc(F)c5nc(C)n(C(C)C)c5c4)n3)nc2)CC1 + CCN1C(C(=O)NC23CCC(C(=O)O)(CC2)CC3)C(c2cccc(Cl)c2F)C2(C(=O)Nc3cc(Cl)ccc32)C12CCCCC2
IC50 (second compound 0.00949 µM): > 1000 nM
IC50 (second compound 0.03 µM): > 1000 nM
IC50 (second compound 0.0949 µM): > 1000 nM
IC50 (second compound 0.3 µM): > 1000 nM
IC50 (second compound 0.949 µM): > 1000 nM
IC50 (second compound 3 µM): > 1000 nM
viability, T/C [1]: 85.7%
viability, T/C [2]: 89.3%
viability, T/C [3]: 76.2%
viability, T/C [4]: 88.8%
viability, T/C [5]: 60.2%
viability, T/C [6]: 71%
viability, T/C [7]: 124%
viability, T/C [8]: 84.4%
viability, T/C [9]: 91.5%
viability, T/C [10]: 105%
viability, T/C [11]: 93.4%
viability, T/C [12]: 76.9%
viability, T/C [13]: 99.8%
viability, T/C [14]: 95.7%
viability, T/C [15]: 86.2%
viability, T/C [16]: 81.7%
viability, T/C [17]: 67.7%
viability, T/C [18]: 58.8%
viability, T/C [19]: 97.6%
viability, T/C [20]: 83.5%
viability, T/C [21]: 69.1%
viability, T/C [22]: 61.9%
viability, T/C [23]: 64.2%
viability, T/C [24]: 104%
viability, T/C [25]: 87.4%
viability, T/C [26]: 72.6%
viability, T/C [27]: 84.8%
viability, T/C [28]: 80.9%
viability, T/C [29]: 81.2%
viability, T/C [30]: 63%
viability, T/C [31]: 71.4%
viability, T/C [32]: 69.9%
viability, T/C [33]: 78.6%
viability, T/C [34]: 89.2%
viability, T/C [35]: 72.7%
viability, T/C [36]: 66.4%

O=C(c1ccc(F)c(F)c1Nc1ccc(I)cc1F)N1CC(O)([C@@H]2CCCCN2)C1 + CCN1C(C(=O)NC23CCC(C(=O)O)(CC2)CC3)C(c2cccc(Cl)c2F)C2(C(=O)Nc3cc(Cl)ccc32)C12CCCCC2
IC50 (second compound 0.00949 µM): 213 nM
IC50 (second compound 0.03 µM): 130 nM
IC50 (second compound 0.0949 µM): 211 nM
IC50 (second compound 0.3 µM): 250 nM
IC50 (second compound 0.949 µM): 246 nM
IC50 (second compound 3 µM): 167 nM
viability, T/C [1]: 57.3%
viability, T/C [2]: 86.8%
viability, T/C [3]: 88.8%
viability, T/C [4]: 116%
viability, T/C [5]: 30.6%
viability, T/C [6]: 19.1%
viability, T/C [7]: 126%
viability, T/C [8]: 91.1%
viability, T/C [9]: 93.1%
viability, T/C [10]: 56%
viability, T/C [11]: 42.5%
viability, T/C [12]: 17.6%
viability, T/C [13]: 105%
viability, T/C [14]: 115%
viability, T/C [15]: 64.8%
viability, T/C [16]: 79.9%
viability, T/C [17]: 36.1%
viability, T/C [18]: 15.5%
viability, T/C [19]: 90.5%
viability, T/C [20]: 90%
viability, T/C [21]: 66.1%
viability, T/C [22]: 91.8%
viability, T/C [23]: 41.1%
viability, T/C [24]: 17.2%
viability, T/C [25]: 81%
viability, T/C [26]: 64%
viability, T/C [27]: 73%
viability, T/C [28]: 70.1%
viability, T/C [29]: 44.3%
viability, T/C [30]: 21.9%
viability, T/C [31]: 68.4%
viability, T/C [32]: 104%
viability, T/C [33]: 46.3%
viability, T/C [34]: 65.7%
viability, T/C [35]: 39.5%
viability, T/C [36]: 14.3%
